According to patent US20250352541A1, “THERAPEUTIC FOR CANCER REFRACTORY TO IMMUNE CHECKPOINT INHIBITOR” (Sumitomo Pharma Co., Ltd., priority 2022, published 2025):

Assays:
CHK1 = CHK1 (Homo sapiens (Human), UniProt O14757); assay: CHK1 inhibitory activity test (IMAP TR-FRET)
hERG current = hERG current (Homo sapiens (Human), UniProt Q12809); assay: hERG current blocking test; details: for hERG/CHK1: IC50 of hERG divided by IC50 of CHK1 inhibition; for IC50: read-out: hERG inhibition IC50, hERG expressing CHO cells
Sequence of hERG current (Q12809 whole entry): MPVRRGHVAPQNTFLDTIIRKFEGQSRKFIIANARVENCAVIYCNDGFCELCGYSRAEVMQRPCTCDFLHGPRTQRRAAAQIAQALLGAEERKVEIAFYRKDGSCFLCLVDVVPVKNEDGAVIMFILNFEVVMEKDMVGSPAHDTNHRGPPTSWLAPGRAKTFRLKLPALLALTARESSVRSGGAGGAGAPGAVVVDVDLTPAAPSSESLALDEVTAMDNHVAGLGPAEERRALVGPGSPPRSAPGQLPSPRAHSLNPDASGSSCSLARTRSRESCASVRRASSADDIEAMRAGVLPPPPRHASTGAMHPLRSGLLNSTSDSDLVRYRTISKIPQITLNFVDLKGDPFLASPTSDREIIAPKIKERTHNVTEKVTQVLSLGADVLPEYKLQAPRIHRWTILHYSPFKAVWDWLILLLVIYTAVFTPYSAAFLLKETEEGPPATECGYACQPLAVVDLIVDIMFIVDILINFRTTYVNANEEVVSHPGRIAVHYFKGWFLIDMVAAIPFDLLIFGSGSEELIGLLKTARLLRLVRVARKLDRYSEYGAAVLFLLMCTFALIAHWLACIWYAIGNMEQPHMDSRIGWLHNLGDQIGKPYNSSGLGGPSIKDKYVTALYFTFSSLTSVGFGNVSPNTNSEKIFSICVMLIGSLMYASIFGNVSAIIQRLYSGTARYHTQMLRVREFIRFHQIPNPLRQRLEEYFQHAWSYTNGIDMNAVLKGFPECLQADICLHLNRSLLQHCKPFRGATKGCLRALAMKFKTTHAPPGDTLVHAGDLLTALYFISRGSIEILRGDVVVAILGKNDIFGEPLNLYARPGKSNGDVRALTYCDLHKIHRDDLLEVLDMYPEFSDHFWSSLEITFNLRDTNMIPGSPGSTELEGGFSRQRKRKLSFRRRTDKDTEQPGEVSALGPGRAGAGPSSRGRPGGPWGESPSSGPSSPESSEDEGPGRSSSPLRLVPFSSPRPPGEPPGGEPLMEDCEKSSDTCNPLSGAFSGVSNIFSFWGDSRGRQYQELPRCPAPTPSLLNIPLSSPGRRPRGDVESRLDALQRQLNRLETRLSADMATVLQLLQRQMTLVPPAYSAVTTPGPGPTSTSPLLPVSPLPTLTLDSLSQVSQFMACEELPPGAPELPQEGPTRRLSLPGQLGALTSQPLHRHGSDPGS

CYP3A4 = CYP3A4 (Homo sapiens (Human), UniProt P08684); assay: CYP3A4 MBI and enzyme inactivation clearance evaluation; assay type: in vitro ADME; details: for Factor of change in IC50 value: human liver microsome, pre-incubation in the presence of NADPH
Sequence of CYP3A4 (P08684 whole entry): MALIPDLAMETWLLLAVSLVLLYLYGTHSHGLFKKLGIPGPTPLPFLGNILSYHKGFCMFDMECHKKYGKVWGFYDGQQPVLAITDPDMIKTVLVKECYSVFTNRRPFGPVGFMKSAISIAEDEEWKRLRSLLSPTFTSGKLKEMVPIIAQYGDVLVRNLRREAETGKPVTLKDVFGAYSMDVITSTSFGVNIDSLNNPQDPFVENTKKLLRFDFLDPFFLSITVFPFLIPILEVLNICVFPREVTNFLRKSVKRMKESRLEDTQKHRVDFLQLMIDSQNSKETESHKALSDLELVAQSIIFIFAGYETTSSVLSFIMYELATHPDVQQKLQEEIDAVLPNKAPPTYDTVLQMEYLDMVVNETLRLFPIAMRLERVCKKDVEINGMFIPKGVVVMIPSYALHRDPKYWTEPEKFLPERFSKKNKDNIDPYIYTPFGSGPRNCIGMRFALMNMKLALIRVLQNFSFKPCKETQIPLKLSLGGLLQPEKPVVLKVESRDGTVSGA
Experimental: The effect and mode of inhibition of the test compound on CYP3A4 were evaluated using a human liver microsome as an enzyme source and midazolam or testosterone as a substrate. […] The IC50 value was calculated from a concentration plot.

ES-2 cells = assay: Cell growth suppression experiment; assay type: cell-based
Experimental: ES-2 cells were obtained from the American Type Culture Collection (ATCC). These cells were cultured at 37° C. in the presence of 5% CO2 in a 10% fetal bovine serum, 1% penicillin/streptomycin containing McCoy's 5a medium.
500 cells were seeded for each well in a 384-well plate, and the evaluated compound was added so that the final concentration of DMSO would be 0.1% to culture the cells for 2 days. After completion of the culture, the cell viability rate was calculated using CellTiter-Glo® 3D Reagent (Promega, G968B).
The results of cell growth suppression test on representative compounds of the present disclosure are listed in the following table based on the ranking of I, IT, III, IV, and V (1000 nM<I, 1000 nM>TI>300 nM, 300 nM>III>100 nM, 100 nMV>IV>30 nM, 30 nM>V).

Sequence of CHK1 (O14757 whole entry): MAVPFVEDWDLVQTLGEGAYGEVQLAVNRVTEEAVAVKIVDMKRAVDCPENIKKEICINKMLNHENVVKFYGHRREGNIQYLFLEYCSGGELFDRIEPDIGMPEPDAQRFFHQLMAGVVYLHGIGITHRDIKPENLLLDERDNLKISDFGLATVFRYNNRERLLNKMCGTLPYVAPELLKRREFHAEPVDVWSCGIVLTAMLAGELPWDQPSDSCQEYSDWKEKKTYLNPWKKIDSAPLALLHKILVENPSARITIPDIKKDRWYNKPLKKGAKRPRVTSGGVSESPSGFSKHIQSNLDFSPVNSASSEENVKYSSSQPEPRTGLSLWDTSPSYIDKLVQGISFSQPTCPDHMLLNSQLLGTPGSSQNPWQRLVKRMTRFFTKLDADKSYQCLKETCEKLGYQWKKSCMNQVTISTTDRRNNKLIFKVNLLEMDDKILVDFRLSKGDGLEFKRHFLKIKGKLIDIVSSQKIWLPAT

## COc1cncc(OC[C@@H]2CNCCO2)c1-c1cc(Nc2cnc(C#N)cn2)n[nH]1 (stereo in doubt) [Example 12, 5-[(5-{3-methoxy-5-[(morpholin-2-yl)methoxy]pyridin-4-yl}-1H-pyrazol-3-yl)amino]pyrazine-2-carbonitrile]
CHK1
  IC50: 0.34 nM
  effect of suppressing CHK1 activity compared with prexasertib: more potent effect of suppressing CHK1 activity than prexasertib
hERG current
  hERG/CHK1: 9118
  IC50: 3100 nM

## COc1cncc(OC[C@H]2CNCCO2)c1-c1cc(Nc2cnc(C#N)cn2)n[nH]1 (stereo in doubt) [Example 13, 5-[(5-{3-methoxy-5-[(morpholin-2-yl)methoxy]pyridin-4-yl}-1H-pyrazol-3-yl)amino]pyrazine-2-carbonitrile]
CHK1
  IC50: 0.74 nM
hERG current
  hERG/CHK1: <3649
  IC50: < 2700 nM

## COc1nccc(OCC2(CO)CNC2)c1-c1cc(Nc2cnc(C#N)cn2)n[nH]1 [Example 8, 5-{[5-(4-{[3-(hydroxymethyl)azetidin-3-yl]methoxy}-2-methoxypyridin-3-yl)-1H-pyrazol-3-yl]amino}pyrazine-2-carbonitrile]
CYP3A4
  Factor of change in IC50 value: Not Detected
CHK1
  IC50: < 0.1 nM
  effect of suppressing CHK1 activity compared with prexasertib: more potent effect of suppressing CHK1 activity than prexasertib
hERG current
  hERG/CHK1: >1000000
  IC50: > 100000 nM

## COc1ccnc(OCCCN)c1-c1cc(Nc2cnc(C(F)(F)F)cn2)n[nH]1 [Example 16, N-{5-[2-(3-aminopropoxy)-4-methoxypyridin-3-yl]-1-H-pyrazol-3-yl}-5-(trifluoromethyl)pyrazin-2-amine]
CHK1
  IC50: 3.04 nM
hERG current
  hERG/CHK1: <888
  IC50: < 2700 nM

## COc1cncc(OC[C@]2(F)CCNC2)c1-c1cc(Nc2cnc(C#N)cn2)n[nH]1 [Example 20, (S)-5-[(5-{3-[(3-fluoropyrrolidin-3-yl)methoxy]-5-methoxypyridin-4-yl}-1H-pyrazol-3-yl)amino]pyrazine-2-carbonitrile]
CHK1
  IC50: 0.34 nM
  effect of suppressing CHK1 activity compared with prexasertib: more potent effect of suppressing CHK1 activity than prexasertib
hERG current
  hERG/CHK1: 11176
  IC50: 3800 nM
ES-2 cells
  cell growth suppression effect compared with prexasertib: excellent cell growth suppression effect that is equivalent to that of prexasertib

## COc1cncc(OC[C@@]2(F)CCNC2)c1-c1cc(Nc2cnc(C#N)cn2)n[nH]1 [Example 22, (R)-5-[(5-{3-[(3-fluoropyrrolidin-3-yl)methoxy]-5-methoxypyridin-4-yl}-1H-pyrazol-3-yl)amino]pyrazine-2-carbonitrile]
CHK1
  IC50: 0.24 nM
  effect of suppressing CHK1 activity compared with prexasertib: more potent effect of suppressing CHK1 activity than prexasertib
hERG current
  hERG/CHK1: 12500
  IC50: 3000 nM
ES-2 cells
  cell growth suppression effect compared with prexasertib: excellent cell growth suppression effect that is equivalent to that of prexasertib

## COc1cncc(OC[C@@H](F)CN)c1-c1cc(Nc2cnc(C#N)cn2)n[nH]1 [Example 29, 5-[(5-{3-[(2S)-3-amino-2-fluoropropoxy]-5-methoxypyridin-4-yl}-1H-pyrazol-3-yl)amino]pyrazine-2-carbonitrile]
CYP3A4
  Factor of change in IC50 value: Not Detected
CHK1
  IC50: 0.6 nM
CHK1; read-out: CHK1 inhibition % at 0.1 nM
  inhibition at 0.0001 µM: < 5%
hERG current
  hERG/CHK1: 18667
  IC50: 11200 nM
ES-2 cells
  cell growth suppression effect compared with prexasertib: excellent cell growth suppression effect that is equivalent to that of prexasertib

## COc1cncc(OC[C@H](F)CN)c1-c1cc(Nc2cnc(C#N)cn2)n[nH]1 [Example 30, 5-[(5-{3-[(2R)-3-amino-2-fluoropropoxy]-5-methoxypyridin-4-yl}-1H-pyrazol-3-yl)amino]pyrazine-2-carbonitrile]
CYP3A4
  Factor of change in IC50 value: Not Detected
CHK1
  IC50: 0.26 nM
  effect of suppressing CHK1 activity compared with prexasertib: more potent effect of suppressing CHK1 activity than prexasertib
hERG current
  hERG/CHK1: 40000
  IC50: 10400 nM
ES-2 cells
  cell growth suppression effect compared with prexasertib: excellent cell growth suppression effect that is equivalent to that of prexasertib

## CN[C@@H]1CC[C@@H](Oc2cncc(OC)c2-c2cc(Nc3cnc(C#N)cn3)n[nH]2)C1 [Example 35, 5-{[5-(3-methoxy-5-{[(1R,3R)-3-(methylamino)cyclopentyl]oxy}pyridin-4-yl)-1H-pyrazol-3-yl]amino}pyrazine-2-carbonitrile]
CHK1
  IC50: 0.62 nM
ES-2 cells
  cell growth suppression effect compared with prexasertib: excellent cell growth suppression effect that is equivalent to that of prexasertib

## COc1cncc(O[C@H]2C[C@H](N)[C@H]3C[C@H]32)c1-c1cc(Nc2cnc(C#N)cn2)n[nH]1 [Example 36, 5-{[5-(3-{[(1R,2S,4S,5S)-4-aminobicyclo[3.1.0]hexan-2-yl]oxy}-5-methoxypyridin-4-yl)-1H-pyrazol-3-yl]amino}pyrazine-2-carbonitrile]
CHK1
  IC50: 0.73 nM
ES-2 cells
  cell growth suppression effect compared with prexasertib: excellent cell growth suppression effect that is equivalent to that of prexasertib

## COc1ccnc(OCC2(CN)CC2)c1-c1cc(Nc2cnc(C#N)cn2)n[nH]1 [Example 37, 5-{[5-(2-{[1-(aminomethyl)cyclopropyl]methoxy}-4-methoxypyridin-3-yl)-1H-pyrazol-3-yl]amino}pyrazine-2-carbonitrile]
CYP3A4
  inhibition of CYP3A4 based on MBI: do not exhibit inhibition of CYP3A4 based on MBI
  Factor of change in IC50 value: Not Detected
CHK1
  IC50: 0.32 nM
  effect of suppressing CHK1 activity compared with prexasertib: more potent effect of suppressing CHK1 activity than prexasertib
hERG current
  hERG/CHK1: <8438
  IC50: < 2700 nM
ES-2 cells
  cell growth suppression effect compared with prexasertib: excellent cell growth suppression effect that is equivalent to that of prexasertib

## COc1nccc(OCC2(CN)CC2)c1-c1cc(Nc2cnc(C#N)cn2)n[nH]1 [Example 38, 5-{[5-(4-{[1-(aminomethyl)cyclopropyl]methoxy}-2-methoxypyridin-3-yl)-1H-pyrazol-3-yl]amino}pyrazine-2-carbonitrile]
CHK1
  IC50: 0.7 nM
ES-2 cells
  cell growth suppression effect compared with prexasertib: excellent cell growth suppression effect that is equivalent to that of prexasertib
